Data: patent EP3666770A1, “NOVEL HETEROCYCLIC COMPOUNDS AS CDK8/19 INHIBITORS” (Joint Stock Company "Biocad", priority 2017, dated 2019)
Read-outs that look alike come from different tables or passages of the source.

How the values were obtained:
[1] = Chemical stability in human blood plasma; type: in vitro ADME; details: pooled human blood plasma; 10 µM; 4 hours at 37°C; substance amount in % after thermostatting
Description: (§1) Chemical stability of the compounds described herein was determined in simulated gastric fluid and human blood plasma.
(§2) Determination of stability in human blood plasma was performed using pooled human blood plasma taken from ten healthy donors. The initial candidate solution (10 mM in DMSO) was diluted with pooled blood plasma to a concentration of […] (test solution). The test solution was incubated in a dry block thermostat for 4 hours at 37°C. HPLC with Agilent 1200 liquid chromatography system (Agilent, USA) was employed to determine peak areas of the compounds in test samples, said peak areas corresponding to the initial test time (prior to incubation) and the final test time (after incubation in a dry block thermostat for 4 hours at 37°C), proteins were preliminarily precipitated with acetonitrile. Chromatographic analysis was performed in a gradient elution regime with a flow rate of 1 mL/min. Substance amount in % in a sample after thermostatting was determined.

[2] = test system: MV4-11; assay: Cell-based antiproliferative test (AlamarBlue), MV4-11; details: 120 h incubation, average values of several tests, read-out: MV-4-11 IC50, mkM
Description: (§3) Antiproliferative activity of CDK8 inhibitors according to the present invention was measured in a cell-based test on continuous cell cultures MV4-11 (biphenotypic myelomonocytic leukemia, ATCC® CRL-9591™), KG-1 (acute myeloid leukemia, ATCC® CCL-246™), HL-60 (acute promyelocytic leukemia, ATCC® CCL-240™) using a vital stain AlamarBlue (ThermoFisher, #DAL1100). The cells were grown in RPMI-1640 (PanEco, #C330p) medium with addition of 10% FBS (Gibco, #16140-071); washed and resuspended in culture medium with 10% FBS (Gibco, #16140-071) in 96-well culture plates (Corning, #3599) with ≈ 10 ×10^3 cells in […] of medium per well. The compounds in question were dissolved in DMSO and diluted with a medium with 10% FBS (Gibco, #16140-071) to a final concentration ranging form 0 to 100 µM. […] of diluted compounds were then added to each well (final DMSO concentration was less than 1%) and incubated under 5% CO2 atmosphere at 37°C for 120 h. After incubating, 15 µL of AlamarBlue (ThermoFisher, #DAL1100) reagent was added per well, contents of plates were mixed in an orbital shaker (Biosan, Latvia) and further incubated for 3-5 h at 37°C under 5% CO2 atmosphere. Number of living cells was estimated using a microplate spectrophotometer (Tecan Infinite M200Pro, Switzerland) measuring fluorescent signal at the excitation wavelength (λEx) of 540 nm and emission wavelength (λEm) of 590 nm.
(§4) IC50 was calculated using Magellan 7.2 software (Tecan, Switzerland) approximating experimental points by four-parameter logistic model with the optimization by Levenberg-Marquardt (table 7, table 7).

[3] = Permeability through Caco-2 cell monolayer; type: in vitro ADME; details: human, Caco-2; for Papp A→B at 2 h, 10 µM: A->B transfer, pH 6.5 -> pH 7.4, 2 hours at 37 °C; for efflux ratio at 2 h, 10 µM: efflux = Papp B-A / Papp A-B
Description: Estimation of permeability through Caco-2 cell monolayer enables assessment of the ability of the substances to penetrate through biological membranes by means of both active and passive transport.
Intestinal epithelial cells Caco-2 were grown on filter inserts (pore size 0.4 µm, BD Falcon with High Density) for 21 days; monolayer integrity was then checked using Lucifer Yellow (Sigma-Aldrich, USA) according to the standard protocol. In A->B transfer ("intestinal lumen" - "blood stream" transfer), solutions of the test substances in buffer, pH 6.5 (HBSS, 10 mM HEPES, 15 mM glucose) at a concentration of 10 µM were added to the upper chamber; whereas the lower chamber was filled with buffer, pH 7.4 (HBSS, 10 mM HEPES, 15 mM Glucose, 1% BSA). In B->A transfer ("blood stream" - "intestinal lumen" transfer), the upper chamber was filled with buffer, pH 6.5, whereas the solutions of the test substances in buffer, pH 7.4, at a concentration of 10 µM were added to the lower chamber. A highly permeable substance propranolol was used as a control.
After 2 hours incubation at 37 ° C under an atmosphere containing 5% CO2, the amounts of the test substances in the upper and lower chambers were measured by HPLC using an Agilent1200 HPLC system (Agilent, USA), proteins were preliminarily precipitated with acetonitrile. Chromatographic analysis was performed in a gradient elution regime with a flow rate of 1 mL/min. The peak areas corresponding to the compounds were detected on chromatograms.
The value was calculated using the formula: efflux = Papp B−A /Papp A−B , [formula] where • Papp A-E - the value of permeability direct analysis A→ B; • Papp B-A - the value of the permeability of the reverse analysis B→ A.

[4] = Enzyme stability in human liver microsomes; type: in vitro ADME; details: pH 7.4; 0,5 mg/mL pooled human liver microsomes; 10 µM compound; 37°C; pH=7,4
Description: Measuring of candidates' enzyme stability enabled estimation of the stability of the present compounds towards the action of enzymes in liver microsomes.
Enzyme degradation rate was measured by incubating the reaction mixture in a dry block thermostat at 37°C, said reaction mixture comprising 0,5 mg/mL of pooled human liver microsomes (XenoTech, USA, cat#H2620), 10 µM compound, 2 mM β-nicotinamide adenine dinucleotide (Carbosynth, UK, cat#NN10871) and 4 mM magnesium chloride in 0,1 M sodium-phosphate buffer, pH=7,4. The reaction was quenched with acetonitrile (100 µL of acetonitrile / 100 µL of the reaction mixture). After quenching, the samples were centrifuged at 10000 rpm for 10 minutes. Supernatant fluid was tested by chromatographic technique using Agilent1200 (Agilent, USA). Chromatographic analysis was performed in a gradient elution regime with a flow rate of 1 mL/min. A graph of the logarithm of substance's peak area as a function of time was made. The dependent factor of the line corresponded to the elimination rate constant K based on which the drug's half-life t1/2 and degradation rate CLint were calculated: Elimination rate constant (k) = (−gradient) [formula] [formula] V(μL/mg) = (volume of incubation(μL))/(protein in the incubation(mg)) [formula] [formula]

[5] = Chemical stability in simulated gastric fluid (SGF); type: physicochemical; details: SGF without enzymes, pH=1,4; 10 µm; 2 hours at 37°C; substance amount in % after thermostatting
Description: as §1
as §2, with “SGF concentrate without enzymes, pH=1,4 (Sigma Ireland, cat#01651)” for “Determination of stability in human blood plasma”, “used as simulated gastric fluid. Initial” for “performed using pooled human blood plasma taken from ten healthy donors. The initial”, “an SGF working solution” for “pooled blood plasma”, “2” for “4”, “37°C).” for “37°C), proteins were preliminarily precipitated with acetonitrile.”

[6] = General cytotoxicity test on HepG2 cells; type: cell-based; details: human, HepG2 cells; 72 h incubation; 200 to 0.78 µM; average values of several tests; read-out: Hep-G2 CC50, mkM
Description: Cell viability was assessed using the above method. Table 6. […] The results are presented as average values of activity obtained in several tests.

[7] = test system: KG-1; assay: Cell-based antiproliferative test (AlamarBlue), KG-1; details: 120 h incubation, average values of several tests, read-out: KG-1 IC50, mkM
Description: as §3, §4

SMILES | Stability in blood plasma, % [1] | IC50 ([2]; Homo sapiens, MV4-11, 120 h) | Papp A→B at 2 h, 10 µM [3] | efflux ratio at 2 h, 10 µM [3] | microsomal CLint at 10 µM [4] | Stability in SGF, % [5] | CC50 at 72 h [6] | IC50 ([7]; Homo sapiens, KG-1) | IC50 [2] | IC50 [7]
COc1ccc(-c2cnc3[nH]cc(C(=O)c4ccncc4)c3c2)cc1 [CDK8-4-33, (5-(4-Methoxyphenyl)-1H-pyrrolo[2,3-b]pyridin-3-yl) (pyridin-4-yl)methanone] | 100% | 19700 nM | 13.4 ×10⁻⁶ cm/s | 1.5 | 21.2 µL/min/mg | 100% | > 100000 nM | – | – | –
COc1cc(-c2cnc3[nH]cc(C(=O)c4ccccn4)c3c2)ccc1N1CCOCC1 [CDK8-4-23, (5-(3-Methoxy-4-morpholinophenyl)-1H-pyrrolo[2,3-b]pyridin-3-yl) (pyridin-2-yl) methanone] | 87.4% | 100 nM | 36.9 ×10⁻⁶ cm/s | 0.14 | 12.8 µL/min/mg | 100% | > 100000 nM | – | – | –
O=C(C1CN(c2cc(F)c3ncn(-c4ccc(-c5cn[nH]c5)cc4)c3c2)C1)N1CCOCC1 [CDK8-1-8, (1-(1-(4-(1H-Pyrazol-4-yl)phenyl)-4-fluoro-1H-benzo[d]imidazol-6-yl)azetidin-3-yl)(morpholino)methanone] | 97.8% | 3920 nM | 19.7 ×10⁻⁶ cm/s | 2.9 | 23.4 µL/min/mg | 100% | > 200000 nM | – | – | –
CN(C)c1ccc(-c2cnc3[nH]cc(C(=O)c4cccnc4)c3c2)cc1O [CDK8-4-5] | 100% | 620 nM | 87.6 ×10⁻⁶ cm/s | 0.12 | 26.6 µL/min/mg | 99.2% | 7700 nM | – | – | –
COC1CN(C(=O)c2cnc3c(N)ncc(-c4ccc(-c5cnn(C)c5)cc4)c3c2)C1 [CDK8-3-34, (8-Amino-5-(4-(1-methyl-1H-pyrazol-4-yl)phenyl)-1,7-naphthyridin-3-yl)(3-methoxyazetidin)methanone] | – | – | – | – | – | – | – | 5 nM | – | –
Cn1cc(-c2ccc(-c3cncc4ncc(C(=O)NC5CC5)cc34)cc2)cn1 [CDK8-3-37] | – | – | – | – | – | – | – | – | 22 nM | 4 nM
Cn1cc(-c2ccc(-c3cnc(N)c4ncc(C(=O)NC5CC5)cc34)cc2)cn1 [CDK8-3-38, 8-Amino-N-cyclopropyl-5-(4-(1-methyl-1H-pyrazol-4-yl)phenyl)-1,7-naphthyridine-3-carboxamide] | – | – | – | – | – | – | – | < 10 nM | – | –
O=C(c1ccncc1)c1c[nH]c2ncc(-c3ccc(N4CCOCC4)c(O)c3)cc12 [CDK8-4-11, (5-(3-Hydroxy-4-morpholinophenyl)-1H-pyrrolo[2,3-b]pyridin-3-yl) (pyridin-4-yl) methanone] | 88.5% | 1330 nM | 13.9 ×10⁻⁶ cm/s | 1.54 | 15 µL/min/mg | 98.1% | > 200000 nM | – | – | –
O=C(c1ccccn1)c1c[nH]c2ncc(-c3ccc(N4CCOCC4)cc3)cc12 [CDK8-4-36, (5-(4-Morpholinophenyl)-1H-pyrrolo[2,3-b]pyridin-3-yl) (pyridin-2-yl)methanone] | 100% | 460 nM | – | – | – | 100% | 17000 nM | 1590 nM | – | –
CN1CCN(C(=O)c2cnc3c(N)ncc(-c4ccc(-c5cnn(C)c5)cc4)c3c2)CC1 [CDK8-3-31, (8-Amino-5-(4-(1-methyl-1H-pyrazol-4-yl)phenyl)-1,7-naphthyridin-3-yl)(4-methylpiperazin-1-yl) methanone] | – | – | – | – | – | – | – | 2 nM | – | –
O=C(c1ccccn1)c1c[nH]c2ncc(-c3ccc(N4CCOCC4)c(O)c3)cc12 [CDK8-4-3, (5-(3-Hydroxy-4-morpholinophenyl)-1H-pyrrolo[2,3-b]pyridin-3-yl) (pyridin-2-yl) methanone] | 100% | 1490 nM | – | – | 22 µL/min/mg | 100% | > 200000 nM | – | – | –
O=C(c1cccnc1)c1c[nH]c2ncc(-c3ccc(N4CCOCC4)c(O)c3)cc12 [CDK8-4-7, (5-(3-Hydroxy-4-morpholinophenyl)-1H-pyrrolo[2,3-b]pyridin-3-yl) (pyridin-3-yl) methanone] | 93.8% | 390 nM | 64.5 ×10⁻⁶ cm/s | 0.34 | 23.2 µL/min/mg | 99.1% | > 200000 nM | – | – | –
CN(C)c1ccc(-c2cnc3[nH]cc(C(=O)c4ccncc4)c3c2)cc1O [CDK8-4-9, (5-(4-(Dimethylamino)-3-hydroxyphenyl)-1H-pyrrolo.[2,3-b]pyridin-3-yl) (pyridin-4-yl)methanone] | 100% | 2100 nM | – | – | 21.6 µL/min/mg | 99.5% | > 200000 nM | – | – | –
